From patent publication US9850225B2, “Compounds useful as immunomodulators” (BRISTOL-MYERS SQUIBB COMPANY, priority 2014, dated 2017)

The compounds below were run against PD-1/PD-L1 interaction (PD-1-Ig / PD-L1-His) (Homo sapiens (Human), UniProt Q9NZQ7) (assay: PD-1/PD-L1 Homogenous Time-Resolved Fluorescence (HTRF) binding assay). Settings: PD-1/PD-L1 HTRF binding assay; numeric value; read-out: Range or IC50.
PD-1/PD-L1 interaction (PD-1-Ig / PD-L1-His), sequence (Q9NZQ7 other isoform, or with tags, fused parts or gaps): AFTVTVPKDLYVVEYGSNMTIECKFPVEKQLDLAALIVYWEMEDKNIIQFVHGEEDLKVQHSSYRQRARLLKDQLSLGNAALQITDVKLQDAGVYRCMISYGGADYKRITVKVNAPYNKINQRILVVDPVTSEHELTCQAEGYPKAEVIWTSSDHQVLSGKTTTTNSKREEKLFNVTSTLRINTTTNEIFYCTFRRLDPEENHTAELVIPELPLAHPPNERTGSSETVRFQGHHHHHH
How it was run: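 HTRF detection used 1 nM europium-cryptate anti-Ig and 20 nM APC anti-His. Compounds first saw 10 nM PD-L1-His for 15 min, and 20 nM PD-1-Ig was then added for another 15 min. Buffer was dPBS plus 0.1% BSA and 0.05% Tween-20. All concentrations are final.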
Work on `Cc1c(COc2cc(OCc3cncc(C#N)c3)c(CNC[C@@H](O)CC(=O)O)cc2Cl)cccc1-c1ccc2c(c1)OCCO2` [Example 1250, (S)-4-((5-chloro-2-((5-cyanopyridin-3-yl)methoxy)-4-((3-(2,3-dihydrobenzo[b][1,4]dioxin-6-yl)-2-methylbenzyl)oxy)benzyl)amino)-3-hydroxybutanoic acid] yielded an IC50 of 1.19 nM.

Same assay, conditions: PD-1/PD-L1 HTRF binding assay; value given as range class; read-out: Range or IC50
`CC(=O)NCCNCc1ccc(OCc2cccc(-c3ccccc3)c2C)cc1OC[C@@H]1CCC(=O)N1` [Example 1120, (S)—N-(2-((4-((2-methyl-[1,1′-biphenyl]-3-yl)methoxy)-2-((5-oxopyrrolidin-2-yl)methoxy)benzyl)amino)ethyl)acetamide] was tested, and the IC50 was 10 to 100 nM. Compound `Cc1c(COc2cc(OCc3cncc(C#N)c3)c(CN[C@@H](CCCN)C(=O)O)cc2Cl)cccc1-c1ccc2c(c1)OCCO2` [Example 2003, (S)-5-amino-2-((5-chloro-2-((5-cyanopyridin-3-yl)methoxy)-4-((3-(2,3-dihydrobenzo[b][1,4]dioxin-6-yl)-2-methylbenzyl)oxy)benzyl)amino)pentanoic acid] has an IC50 of 0.6 to 10 nM. `Cc1c(COc2ccc(CN[C@H](CO)C(=O)O)c(OCc3cccc(C#N)c3)c2Cl)cccc1-c1ccccc1` [Example 1231, (R)-2-((3-chloro-2-((3-cyanobenzyl)oxy)-4-((2-methyl-[1,1′-biphenyl]-3-yl)methoxy)benzyl)amino)-3-hydroxypropanoic acid] was tested, and the IC50 was 100 to 20000 nM. `COC(=O)Cc1cccc(COc2cc(OCc3cccc(-c4ccccc4)c3C)ccc2CNCCNC(C)=O)c1` [Example 1101, methyl 2-(3-((2-(((2-acetamidoethyl)amino)methyl)-5-((2-methyl-[1,1′-biphenyl]-3-yl)methoxy)phenoxy)methyl)phenyl)acetate] was tested, and the IC50 was 100 to 20000 nM. `Cc1c(COc2cc(OCc3cccc(C#N)c3)c(CN3CCCC[C@H]3C(=O)O)cc2Br)cccc1-c1ccc2c(c1)OCCO2` [Example 1302, (S)-1-(5-bromo-2-((3-cyanobenzyl)oxy)-4-((3-(2,3-dihydrobenzo[b][1,4]dioxin-6-yl)-2-methylbenzyl)oxy)benzyl)piperidine-2-carboxylic acid] was tested, and the IC50 was 0.6 to 10 nM. Work on `Cc1c(COc2cc(OCc3cccc(C#N)c3)c(CNC(C)(Cc3c[nH]cn3)C(=O)O)cc2Cl)cccc1-c1ccc2c(c1)OCCO2` (centres unmarked) [Example 1191, 2-((5-chloro-2-((3-cyanobenzyl)oxy)-4-((3-(2,3-dihydrobenzo[b][1,4]dioxin-6-yl)-2-methylbenzyl)oxy)benzyl)amino)-3-(1H-imidazol-4-yl)-2-methylpropanoic acid] yielded an IC50 of 0.6 to 10 nM. Work on `COc1ccc(F)c(COc2cc(OCc3cccc(-c4ccccc4)c3C)ccc2CNCCNC(C)=O)c1F` [Example 1092, N-(2-((2-((2,6-difluoro-3-methoxybenzyl)oxy)-4-((2-methyl-[1,1′-biphenyl]-3-yl)methoxy)benzyl)amino)ethyl)acetamide] yielded an IC50 of 100 to 20000 nM. In the case of `Cc1c(COc2cc(OCc3cccc(C#N)c3)c(CN(C)[C@@H](CC(=O)O)C(=O)O)cc2Cl)cccc1-c1ccc2c(c1)OCCO2` [Example 1203, (S)-2-((5-chloro-2-((3-cyanobenzyl)oxy)-4-((3-(2,3-dihydrobenzo[b][1,4]dioxin-6-yl)-2-methylbenzyl)oxy)benzyl)(methyl)amino)succinic acid], the IC50 is reported as 0.6 to 10 nM. `Cc1c(COc2cc(OCc3cccc(C#N)c3)c(CNC(Cc3nccs3)C(=O)O)cc2Cl)cccc1-c1ccc2c(c1)OCCO2` (centres unmarked) [Example 1178, 2-((5-chloro-2-((3-cyanobenzyl)oxy)-4-((3-(2,3-dihydrobenzo[b][1,4]dioxin-6-yl)-2-methylbenzyl)oxy)benzyl)amino)-3-(thiazol-2-yl)propanoic acid] gave an IC50 of 10 to 100 nM. In the case of `Cc1c(COc2cc(OCc3cccc(C#N)c3)c(CN3CCN(C)CC3C(=O)O)cc2Cl)cccc1-c1ccc2c(c1)OCCO2` (centres unmarked) [Example 1224, 1-(5-chloro-2-((3-cyanobenzyl)oxy)-4-((3-(2,3-dihydrobenzo[b][1,4]dioxin-6-yl)-2-methylbenzyl)oxy)benzyl)-4-methylpiperazine-2-carboxylic acid], the IC50 is reported as 10 to 100 nM. For `Cc1c(COc2cc(OCc3cccc(C#N)c3)c(CN[C@@H](Cn3ncnn3)C(=O)O)cc2Cl)cccc1-c1ccc2c(c1)OCCO2` [Example 1227, (S)-2-((5-chloro-2-((3-cyanobenzyl)oxy)-4-((3-(2,3-dihydrobenzo[b][1,4]dioxin-6-yl)-2-methylbenzyl)oxy)benzyl)amino)-3-(2H-tetrazol-2-yl)propanoic acid], the IC50 was 100 to 20000 nM. `Cc1c(COc2cc(OCc3cccc(C#N)c3)c(CN(C)C(C)C(=O)O)cc2Cl)cccc1-c1ccc2c(c1)OCCO2` (centres unmarked) [Example 1188, 2-((5-chloro-2-((3-cyanobenzyl)oxy)-4-((3-(2,3-dihydrobenzo[b][1,4]dioxin-6-yl)-2-methylbenzyl)oxy)benzyl)(methyl)amino)propanoic acid] was tested, and the IC50 was 0.6 to 10 nM. `Cc1cc(CN[C@@](C)(CO)C(=O)O)c(OCc2ccc(F)c(C#N)c2)cc1OCc1cccc(-c2ccc3c(c2)OCCO3)c1C` [Example 1275, (S)-2-((2-((3-cyano-4-fluorobenzyl)oxy)-4-((3-(2,3-dihydrobenzo[b][1,4]dioxin-6-yl)-2-methylbenzyl)oxy)-5-methylbenzyl)amino)-3-hydroxy-2-methylpropanoic acid] gave an IC50 of 0.6 to 10 nM. `COC(=O)c1cccc(COc2cc(OCc3cccc(-c4ccccc4)c3C)ccc2CNCCNC(C)=O)c1` [Example 1034, methyl 3-((2-(((2-acetamidoethyl)amino)methyl)-5-((2-methyl-[1,1′-biphenyl]-3-yl)methoxy)phenoxy)methyl)benzoate] showed an IC50 of 100 to 20000 nM. Work on `Cc1c(COc2ccc(CN[C@](C)(CO)C(=O)O)c(OCc3cccc(C#N)c3)c2)cccc1-c1ccccc1` [Example 1023, (R)-2-((2-((3-cyanobenzyl)oxy)-4-((2-methyl-[1,1′-biphenyl]-3-yl)methoxy)benzyl)amino)-3-hydroxy-2-methylpropanoic acid] yielded an IC50 of 0.6 to 10 nM. For `Cc1cc(CNC[C@@H](O)CC(=O)O)c(OCCCCC#N)cc1OCc1cccc(-c2ccc3c(c2)OCCO3)c1C` [Example 1295, (S)-4-(2-(4-cyanobutoxy)-4-(3-(2,3-dihydrobenzo[b][1,4]dioxin-6-yl)-2-methylbenzyloxy)-5-methylbenzylamino)-3-hydroxybutanoic acid], the IC50 was 0.6 to 10 nM. With `Cc1c(COc2cc(OCc3ccnc(C(=O)N(C)C)c3)c(CO)cc2Cl)cccc1-c1ccc2c(c1)OCCO2` [Example 3019, 4-(4-chloro-5-{[3-(2,3-dihydro-1,4-benzodioxin-6-yl)-2-methylphenyl]methoxy}-2-(hydroxymethyl)phenoxymethyl)-N,N-dimethylpyridine-2-carboxamide] the IC50 was 100 to 20000 nM. `COc1cc(OCc2cccc(-c3ccc4c(c3)OCCO4)c2C)cc(OCc2cccc(C#N)c2)c1CN[C@@](C)(CO)C(=O)O` [Example 1142, (S)-2-((2-((3-cyanobenzyl)oxy)-4-((3-(2,3-dihydrobenzo[b][1,4]dioxin-6-yl)-2-methylbenzyl)oxy)-6-methoxybenzyl)amino)-3-hydroxy-2-methylpropanoic acid] showed an IC50 of 0.6 to 10 nM. In the case of `Cc1c(COc2cc(OCc3cncc(C#N)c3)c(CNC[C@@H](O)CC(=O)O)cc2Br)cccc1-c1ccc2c(c1)OCCO2` [Example 1316, (S)-4-(5-bromo-2-((5-cyanopyridin-3-yl)methoxy)-4-(3-(2,3-dihydrobenzo[b][1,4]dioxin-6-yl)-2-methylbenzyloxy)benzylamino)-3-hydroxybutanoic acid], the IC50 is reported as 0.6 to 10 nM. For `CC(=O)NCCNCc1ccc(OCc2cccc(-c3ccccc3)c2C)cc1OCC(N)=O` [Example 1031, 2-(2-(((2-acetamidoethyl)amino)methyl)-5-((2-methyl-[1,1′-biphenyl]-3-yl)methoxy)phenoxy)acetamide], the IC50 was 100 to 20000 nM. `Cc1c(COc2cc(OCc3cccc(C#N)c3)c(CN[C@@H](Cc3ccccn3)C(=O)O)cc2Cl)cccc1-c1ccc2c(c1)OCCO2` [Example 1221, (S)-2-((5-chloro-2-((3-cyanobenzyl)oxy)-4-((3-(2,3-dihydrobenzo[b][1,4]dioxin-6-yl)-2-methylbenzyl)oxy)benzyl)amino)-3-(pyridin-2-yl)propanoic acid] showed an IC50 of 0.6 to 10 nM. For `COC(=O)c1ccc(OC)c(COc2cc(OCc3cccc(-c4ccc5c(c4)OCCO5)c3C)c(Cl)cc2CN2CCCC[C@H]2C(=O)O)c1` [Example 3026, (S)-1-(5-chloro-4-((3-(2,3-dihydrobenzo[b][1,4]dioxin-6-yl)-2-methylbenzyl)oxy)-2-((2-methoxy-5-(methoxycarbonyl)benzyl)oxy)benzyl)piperidine-2-carboxylic acid], the IC50 was 100 to 20000 nM. `COc1cc(COc2cc(OCc3cccc(-c4ccc5c(c4)OCCO5)c3C)c(Cl)cc2CN[C@@](C)(CO)C(=O)O)cc(Cl)n1` [Example 3014, (S)-2-((5-chloro-2-((2-chloro-6-methoxypyridin-4-yl)methoxy)-4-((3-(2,3-dihydrobenzo[b][1,4]dioxin-6-yl)-2-methylbenzyl)oxy)benzyl)amino)-3-hydroxy-2-methylpropanoic acid] showed an IC50 of 0.6 to 10 nM. With `Cc1c(COc2cc(OCc3cccc(C#N)c3)c(CN[C@@H](Cc3cccc(C#N)c3)C(=O)O)cc2Cl)cccc1-c1ccc2c(c1)OCCO2` [Example 1217, (S)-2-((5-chloro-2-((3-cyanobenzyl)oxy)-4-((3-(2,3-dihydrobenzo[b][1,4]dioxin-6-yl)-2-methylbenzyl)oxy)benzyl)amino)-3-(3-cyanophenyl)propanoic acid] the IC50 was 10 to 100 nM. `Cc1c(COc2cc(OCc3cccc(C#N)c3)c(CN[C@H](C(=O)O)[C@H](C)O)cc2Cl)cccc1-c1ccc2c(c1)OCCO2` [Example 1189, (2S,3S)-2-((5-chloro-2-((3-cyanobenzyl)oxy)-4-((3-(2,3-dihydrobenzo[b][1,4]dioxin-6-yl)-2-methylbenzyl)oxy)benzyl)amino)-3-hydroxybutanoic acid] showed an IC50 of 0.6 to 10 nM.
